Experimental data: ChEMBL document CHEMBL1201862, “PubChem BioAssay data set” (2004)
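How tested: cells in 96-well plates exposed to compound for 48 hours at five concentrations. The concentration for 50% growth inhibition is given as GI50.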 Active and inactive are the calls of the source. Rule as the data show it: active = GI50 up to about 1.1 µM and inactive = higher.

Tests used:
Assay in all cases: NCI tumour cell line growth inhibition, 48 h
[1] = system: RXF 393
[2] = system: SW-620
[3] = system: NCI-H522
[4] = system: HOP-62
[5] = system: CAKI-1
[6] = system: UACC-257
[7] = system: NCI-H23
[8] = system: SN12C
[9] = system: UACC-62
[10] = system: HT-29
[11] = system: OVCAR-5
[12] = system: EKVX
[13] = system: SNB-19
[14] = system: OVCAR-4
[15] = system: Malme-3M
[16] = system: SK-OV-3
[17] = system: SR

Measured: GI50

O=[N+]([O-])c1ccc(C2c3c(O)nc(S)nc3Oc3nc(S)nc(O)c32)cc1
inactive: [1] > 100 µM | [2] > 100 µM | [3] > 100 µM | [4] > 100 µM | [5] > 100 µM | [6] > 100 µM | [7] > 100 µM | [8] > 100 µM | [9] > 100 µM | [10] > 100 µM | [11] > 100 µM | [12] > 100 µM | [13] > 100 µM | [14] > 100 µM

O=[N+]([O-])c1ccc2c(c1)C1=C(CO2)Cc2ccccc2O1
inactive: [15] 26.4 µM | [2] 21.3 µM | [3] 22.4 µM | [4] 64.6 µM | [5] 17.6 µM | [6] 17.8 µM | [7] 22 µM | [8] 25.9 µM | [9] 19.4 µM | [10] 26.2 µM | [16] 74.5 µM | [17] 18.9 µM | [11] 24.5 µM | [12] 27.2 µM | [14] 36.9 µM

O=C1N/C(=N/N=C/c2ccccc2)N/C1=C\c1c[nH]c2ccccc12
inactive: [1] > 100 µM | [15] > 100 µM | [2] 64.4 µM | [3] 74.3 µM | [4] 61.4 µM | [5] > 100 µM | [6] > 100 µM | [7] 95.1 µM | [8] 29.2 µM | [9] > 100 µM | [10] > 100 µM | [16] > 100 µM | [11] > 100 µM | [12] 84.5 µM | [13] 22.8 µM | [14] > 100 µM

CC(=O)NC1C(Sc2ncn(C3OC(CO)C(O)C(O)C3NC(C)=O)n2)OC(CO)C(O)C1O (configuration not stated)
inactive: [1] > 100 µM | [15] > 100 µM | [2] > 100 µM | [3] > 100 µM | [4] > 100 µM | [5] > 100 µM | [6] > 100 µM | [7] > 100 µM | [8] > 100 µM | [9] > 100 µM | [10] > 100 µM | [16] > 100 µM | [11] > 100 µM | [12] > 100 µM | [13] > 100 µM | [14] > 100 µM

[O-][S+](Nc1ccccc1)c1ccc(Cl)cc1 (configuration not stated)
inactive: [15] > 100 µM | [2] > 100 µM | [3] 73.3 µM | [4] > 100 µM | [5] > 100 µM | [6] > 100 µM | [7] > 100 µM | [8] > 100 µM | [9] 14.9 µM | [10] > 100 µM | [17] 16.4 µM | [11] > 100 µM | [12] > 100 µM | [13] > 100 µM | [14] > 100 µM

CC(=O)OC1CC[C@@]2(C)C(=CC[C@@H]3[C@@H]2CC[C@]2(C)Nc4c(cnn4-c4ccc(F)cc4)C[C@@H]32)C1 (some centres not stated)
inactive: [1] 2.64 µM | [15] 9.35 µM | [2] 22.9 µM | [3] 68.4 µM | [4] 5.5 µM | [5] 6.1 µM | [6] 45.1 µM | [7] 22.1 µM | [8] > 100 µM | [9] 15.8 µM | [10] 13.2 µM | [16] 32.1 µM | [11] > 87.5 µM | [12] 33.5 µM | [13] 30.9 µM | [14] > 53.5 µM

Cc1cc(C)c(C2CC(O)C(CO)O2)cc1C (configuration not stated)
inactive: [15] > 100 µM | [2] > 100 µM | [3] > 100 µM | [4] > 100 µM | [5] > 100 µM | [6] > 100 µM | [7] > 100 µM | [8] > 100 µM | [9] > 100 µM | [10] > 100 µM | [16] > 100 µM | [17] > 100 µM | [11] > 100 µM | [12] > 100 µM | [13] > 100 µM | [14] > 100 µM

CO[C@@]12C[C@@H](CNC(=O)c3cc(Br)c[nH]3)O[C@@H]1NC(=O)N2
inactive: [1] > 100 µM | [15] > 100 µM | [2] > 100 µM | [3] > 100 µM | [4] > 100 µM | [5] > 100 µM | [6] > 100 µM | [7] > 100 µM | [8] > 100 µM | [9] > 100 µM | [10] > 100 µM | [16] > 100 µM | [11] > 100 µM | [12] > 100 µM | [13] > 100 µM | [14] > 100 µM

S=C(Nc1ccccc1)c1ccc(CN2CCCCC2)s1
inactive: [15] 21 µM | [2] 16.4 µM | [3] 17.8 µM | [4] 26.5 µM | [5] 20.7 µM | [6] 19.4 µM | [7] 19.4 µM | [9] 18.7 µM | [10] 11.3 µM | [16] 19.5 µM | [17] 15.6 µM | [11] 16.2 µM | [12] 41.8 µM | [13] 20.2 µM | [14] 35.6 µM

O=[N+]([O-])/C(C(Cl)=C(Cl)Cl)=C1\Nc2ccc([N+](=O)[O-])cc2N1
inactive: [15] 63.5 µM | [3] 13.5 µM | [4] > 100 µM | [5] 72.1 µM | [6] > 100 µM | [7] > 100 µM | [8] 55.7 µM | [9] > 100 µM | [16] > 100 µM | [11] > 100 µM | [12] > 100 µM | [13] > 100 µM | [14] > 100 µM

CCNc1ncnc2nn[nH]c12
inactive: [1] > 100 µM | [15] > 100 µM | [2] > 100 µM | [3] > 100 µM | [4] > 100 µM | [5] > 100 µM | [6] > 100 µM | [7] > 100 µM | [8] > 100 µM | [9] > 100 µM | [10] > 100 µM | [16] > 100 µM | [12] > 100 µM | [13] > 100 µM | [14] > 100 µM

C[P+](c1ccccc1)(c1ccc(Cl)cc1)c1ccc(Cl)cc1
inactive: [1] 46.2 µM | [15] 4.19 µM | [2] 18.5 µM | [3] 12.9 µM | [4] 19.5 µM | [6] 8.11 µM | [7] 12.3 µM | [8] 15.6 µM | [9] 10.1 µM | [10] 4.44 µM | [16] 37.2 µM | [11] 18.2 µM | [12] 21.3 µM | [13] 13 µM | [14] 13.2 µM

CCOS(C)(=O)=O [METHANESULFONIC ACID ETHYL ESTER]
inactive: [1] > 100 µM | [15] > 100 µM | [2] > 100 µM | [3] > 100 µM | [5] > 100 µM | [6] > 100 µM | [7] > 100 µM | [8] > 100 µM | [9] > 100 µM | [10] > 100 µM | [16] > 100 µM | [11] > 100 µM | [12] > 100 µM | [13] > 100 µM | [14] > 100 µM
